Measurements taken from patent publication US20210122730A1, “GLUCOCORTICOID RECEPTOR MODULATORS” (ORIC Pharmaceuticals, Inc., priority 2017, published 2021).

Key:
CYP2C8 = target: T1, CYP2C8 (Homo sapiens, UniProt P10632); assay: CYP Inhibition Assay (CYP2C8, human liver microsomes, paclitaxel substrate); assay type: in vitro ADME; conditions: pH 7.4; pooled human liver microsomes 0.1 mg/mL, probe substrate paclitaxel
T1 construct: Pooled human microsomes were obtained from Sekisui XenoTech, KS; tissue Sekisui XenoTech, KS; host or cells: pooled human liver microsomes
T1 sequence (P10632 1-490): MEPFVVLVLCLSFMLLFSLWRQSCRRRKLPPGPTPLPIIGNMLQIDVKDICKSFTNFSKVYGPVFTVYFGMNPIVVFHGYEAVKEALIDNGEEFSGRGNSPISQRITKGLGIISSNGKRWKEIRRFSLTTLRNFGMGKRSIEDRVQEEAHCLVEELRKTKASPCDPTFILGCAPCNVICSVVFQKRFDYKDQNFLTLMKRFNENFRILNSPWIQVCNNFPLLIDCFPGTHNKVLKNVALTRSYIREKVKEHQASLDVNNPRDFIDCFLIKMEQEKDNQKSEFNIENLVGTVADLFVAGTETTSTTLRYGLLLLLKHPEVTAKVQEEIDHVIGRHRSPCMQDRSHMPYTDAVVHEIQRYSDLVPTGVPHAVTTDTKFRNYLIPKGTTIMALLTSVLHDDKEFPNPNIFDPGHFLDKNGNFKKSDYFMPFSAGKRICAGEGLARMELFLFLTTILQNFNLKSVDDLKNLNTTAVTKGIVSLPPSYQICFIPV
Procedure, shortened: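 CYP2C8 activity read as 6α-hydroxypaclitaxel formation by LC-MS/MS, with % inhibition versus vehicle control. Reactions ran 5 min at 37° C, pH 7.4 phosphate buffer, 0.1 mg/mL pooled human liver microsomes, 1 mM NADPH, duplicate wells.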

GR = target: T2, GR (Homo sapiens, UniProt P04150); assay: In Vitro GR Luciferase Reporter Assay (antagonist mode, CHO-K1-GR-MMTV-Luc reporter cells); assay type: cell-based
T2 construct: expressed in transfected cells; host or cells: CHO-K1
T2 sequence (P04150 1-777): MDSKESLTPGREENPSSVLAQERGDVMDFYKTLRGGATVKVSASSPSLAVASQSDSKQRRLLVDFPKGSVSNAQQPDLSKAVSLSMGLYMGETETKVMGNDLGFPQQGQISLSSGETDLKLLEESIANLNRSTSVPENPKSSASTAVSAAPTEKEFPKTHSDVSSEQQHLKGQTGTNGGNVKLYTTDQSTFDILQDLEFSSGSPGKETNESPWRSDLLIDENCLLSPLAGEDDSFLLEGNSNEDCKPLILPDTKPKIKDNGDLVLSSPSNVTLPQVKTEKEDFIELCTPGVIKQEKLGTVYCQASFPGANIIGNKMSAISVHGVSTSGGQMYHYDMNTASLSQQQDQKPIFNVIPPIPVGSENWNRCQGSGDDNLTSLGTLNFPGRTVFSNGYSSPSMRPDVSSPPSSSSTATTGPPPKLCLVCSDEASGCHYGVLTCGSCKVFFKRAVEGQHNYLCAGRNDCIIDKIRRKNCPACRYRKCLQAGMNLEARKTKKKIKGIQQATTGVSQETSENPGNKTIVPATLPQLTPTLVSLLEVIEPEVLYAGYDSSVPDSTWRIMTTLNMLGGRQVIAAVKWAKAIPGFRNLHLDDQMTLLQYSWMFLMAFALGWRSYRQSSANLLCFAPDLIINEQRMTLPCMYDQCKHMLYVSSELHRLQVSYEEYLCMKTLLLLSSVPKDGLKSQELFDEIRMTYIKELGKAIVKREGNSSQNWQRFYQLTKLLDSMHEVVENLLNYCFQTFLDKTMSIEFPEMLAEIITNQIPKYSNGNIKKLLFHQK
Procedure, shortened: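 Antagonist mode: compounds (8 serial 1:5 dilutions) added to GR-MMTV-luciferase CHO-K1 reporter cells co-exposed to 10 nM dexamethasone final, in phenol red-free DMEM plus 10% CSS. After roughly 18-24 h at 37° C, OneGlo luminescence read and IC50 calculated.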

[1] = antagonist mode, 10 nM Dexamethasone
[2] = antagonist assay with 10 nM Dexamethasone, 18-24 hours

inhibition at 5 min (CYP2C8) [%]	IC50 (GR; [1]) [nM]	IC50 (GR; [2]) [nM]	SMILES
≤ 25	≤ 100		Cn1cc(S(=O)(=O)C[C@H]2CCC3=Cc4c(cnn4-c4ccc(F)cc4)C[C@]3(C(=O)c3cc(C(F)(F)F)ccn3)C2)cn1 (single isomer, unassigned) [Example 118]
25 to 50		≤ 100	CN([C@H]1CCC2=Cc3c(cnn3-c3ccc(F)cc3)C[C@]2(C(=O)c2cc(C(F)(F)F)ccn2)C1)S(=O)(=O)c1ccc(F)cc1 [Example 5, 4-Fluoro-N-((4aS,6S)-1-(4-fluorophenyl)-4a-(4-(trifluoromethyl)picolinoyl)-4,4a,5,6,7,8-hexahydro-1H-benzo[f]indazol-6-yl)-N-methylbenzenesulfonamide]
25 to 50		≤ 100	Cn1cc(S(=O)(=O)N(C2CC2)[C@H]2CCC3=Cc4c(cnn4-c4ccc(F)cc4)C[C@]3(C(=O)c3cc(C(F)(F)F)ccn3)C2)cn1 [Example 88, N-cyclopropyl-N-((4aS,6S)-1-(4-fluorophenyl)-4a-(4-(trifluoromethyl)picolinoyl)-4,4a,5,6,7,8-hexahydro-1H-benzo[f]indazol-6-yl)-1-methyl-1H-pyrazole-4-sulfonamide]
25 to 50		≤ 100	CN([C@H]1CCC2=Cc3c(cnn3-c3ccc(F)cc3)C[C@]2(C(=O)c2cc(C(F)(F)F)ccn2)C1)S(=O)(=O)c1ccn(C)n1 [Example 98, N-((4aS,6S)-1-(4-fluorophenyl)-4a-(4-(trifluoromethyl)picolinoyl)-4,4a,5,6,7,8-hexahydro-1H-benzo[f]indazol-6-yl)-N,1-dimethyl-1H-pyrazole-3-sulfonamide]
25 to 50		≤ 100	Cn1cc(S(=O)(=O)N(CC2CC2)[C@H]2CCC3=Cc4c(cnn4-c4ccc(F)cc4)C[C@]3(C(=O)c3cc(C(F)(F)F)ccn3)C2)cn1 [Example 103, N-(cyclopropylmethyl)-N-((4aS,6S)-1-(4-fluorophenyl)-4a-(4-(trifluoromethyl)picolinoyl)-4,4a,5,6,7,8-hexahydro-1H-benzo[f]indazol-6-yl)-1-methyl-1H-pyrazole-4-sulfonamide]
25 to 50	≤ 100		Cn1ccc(S(=O)(=O)N(CC(F)(F)F)[C@H]2CCC3=Cc4c(cnn4-c4ccc(F)cc4)C[C@]3(C(=O)c3cc(C(F)(F)F)ccn3)C2)n1 [Example 111, N-((4aS,6S)-1-(4-Fluorophenyl)-4a-(4-(trifluoromethyl)picolinoyl)-4,4a,5,6,7,8-hexahydro-1H-benzo[f]indazol-6-yl)-1-methyl-N-(2,2,2-trifluoroethyl)-1H-pyrazole-3-sulfonamide]
≤ 25	≤ 100		Cn1ccc(S(=O)(=O)[C@H]2CCC3=Cc4c(cnn4-c4ccc(F)cc4)C[C@]3(C(=O)c3cc(C(F)(F)F)ccn3)C2)n1 [Example 113, ((4aS,6S)-1-(4-Fluorophenyl)-6-((1-methyl-1H-pyrazol-3-yl)sulfonyl)-1,4,5,6,7,8-hexahydro-4aH-benzo[f]indazol-4a-yl)(4-(trifluoromethyl)pyridin-2-yl)methanone]
50 to 75	≤ 100		Cn1ccc(S(=O)(=O)N(C2CC2)[C@H]2CCC3=Cc4c(cnn4-c4ccc(F)cc4)C[C@]3(C(=O)c3cc(C(F)(F)F)ccn3)C2)n1 [Example 138, N-cyclopropyl-N-((4aS,6S)-1-(4-fluorophenyl)-4a-(4-(trifluoromethyl)picolinoyl)-4,4a,5,6,7,8-hexahydro-1H-benzo[f]indazol-6-yl)-1-methyl-1H-pyrazole-3-sulfonamide]
≤ 25	≤ 100		O=C(c1ncc(C(F)(F)F)s1)[C@]12Cc3cnn(-c4ccc(F)cc4)c3C=C1CC[C@H](N(C1CC1)S(=O)(=O)c1ccc(F)cc1)C2 [Example 177, N-cyclopropyl-4-fluoro-N-((4aS,6S)-1-(4-fluorophenyl)-4a-(5-(trifluoromethyl)thiazole-2-carbonyl)-4,4a,5,6,7,8-hexahydro-1H-benzo[f]indazol-6-yl)benzenesulfonamide]
25 to 50	≤ 100		Cn1ccc(S(=O)(=O)N(CC2CC2)[C@H]2CCC3=Cc4c(cnn4-c4ccc(F)cc4)C[C@]3(C(=O)c3ncc(C(F)(F)F)s3)C2)n1 [Example 179, N-(cyclopropylmethyl)-N-((4aS,6S)-1-(4-fluorophenyl)-4a-(5-(trifluoromethyl)thiazole-2-carbonyl)-4,4a,5,6,7,8-hexahydro-1H-benzo[f]indazol-6-yl)-1-methyl-1H-pyrazole-3-sulfonamide]
50 to 75	≤ 100		CC(C)N([C@H]1CCC2=Cc3c(cnn3-c3ccc(F)cc3)C[C@]2(C(=O)c2cc(C(F)(F)F)ccn2)C1)S(=O)(=O)c1ccn(C)n1 [Example 186, N-((4aS,6S)-1-(4-fluorophenyl)-4a-(4-(trifluoromethyl)picolinoyl)-4,4a,5,6,7,8-hexahydro-1H-benzo[f]indazol-6-yl)-N-isopropyl-1-methyl-1H-pyrazole-3-sulfonamide]
25 to 50	≤ 100		CC(C)N(C(=O)c1cnn(C)c1)[C@H]1CCC2=Cc3c(cnn3-c3ccc(F)cc3)C[C@]2(C(=O)c2ncc(C(F)(F)F)s2)C1 [Example 211, N-((4aS,6S)-1-(4-fluorophenyl)-4a-(5-(trifluoromethyl)thiazole-2-carbonyl)-4,4a,5,6,7,8-hexahydro-1H-benzo[f]indazol-6-yl)-N-isopropyl-1-methyl-1H-pyrazole-4-carboxamide]
25 to 50	≤ 100		Cn1ccc(S(=O)(=O)N(C2CC(F)(F)C2)[C@H]2CCC3=Cc4c(cnn4-c4ccc(F)cc4)C[C@]3(C(=O)c3cc(C(F)(F)F)ccn3)C2)n1 [Example 227, N-(3,3-difluorocyclobutyl)-N-((4aS,6S)-1-(4-fluorophenyl)-4a-(4-(trifluoromethyl)picolinoyl)-4,4a,5,6,7,8-hexahydro-1H-benzo[f]indazol-6-yl)-1-methyl-1H-pyrazole-3-sulfonamide]
25 to 50	≤ 100		O=C(c1cc(Cl)ccn1)[C@]12Cc3cnn(-c4ccc(F)cc4)c3C=C1CC[C@H](N(C1CC1)S(=O)(=O)c1ccc(F)cc1)C2 [Example 232, N-((4aS,6S)-4a-(4-chloropicolinoyl)-1-(4-fluorophenyl)-4,4a,5,6,7,8-hexahydro-1H-benzo[f]indazol-6-yl)-N-cyclopropyl-4-fluorobenzenesulfonamide]
≤ 25	≤ 100		Cn1cc(S(=O)(=O)N(CC(C)(C)O)[C@H]2CCC3=Cc4c(cnn4-c4ccc(F)cc4)C[C@]3(C(=O)c3cc(F)ccn3)C2)cn1 [Example 248, N-((4aS,6S)-1-(4-fluorophenyl)-4a-(4-fluoropicolinoyl)-4,4a,5,6,7,8-hexahydro-1H-benzo[f]indazol-6-yl)-N-(2-hydroxy-2-methylpropyl)-1-methyl-1H-pyrazole-4-sulfonamide]
≤ 25	≤ 100		Cn1ccc(S(=O)(=O)N(C2CC(F)(F)C2)[C@H]2CCC3=Cc4c(cnn4-c4ccc(F)cc4)C[C@]3(C(=O)c3ncc(C(F)(F)F)s3)C2)n1 [Example 270, N-(3,3-difluorocyclobutyl)-N-((4aS,6S)-1-(4-fluorophenyl)-4a-(5-(trifluoromethyl)thiazole-2-carbonyl)-4,4a,5,6,7,8-hexahydro-1H-benzo[f]indazol-6-yl)-1-methyl-1H-pyrazole-3-sulfonamide]
≤ 25	≤ 100		Cn1ccc(S(=O)(=O)N([C@H]2CCC3=Cc4c(cnn4-c4ccc(F)cc4)C[C@]3(C(=O)c3ncc(C(F)(F)F)s3)C2)[C@H]2C[C@@](C)(O)C2)n1 [Example 277, N-((4aS,6S)-1-(4-fluorophenyl)-4a-(5-(trifluoromethyl)thiazole-2-carbonyl)-4,4a,5,6,7,8-hexahydro-1H-benzo[f]indazol-6-yl)-N-((1s,3R)-3-hydroxy-3-methylcyclobutyl)-1-methyl-1H-pyrazole-3-sulfonamide]
